Experimental data: US20250082674A1, “METHODS OF TREATING COPPER METABOLISM-ASSOCIATED DISEASES OR DISORDERS” (priority 2021, published 2025)
Where two headings read alike, the source gives them in different places.

Legend:
[1] = tested on: patients with Wilson disease (WD)
Source text: The UWDRS Part II total score results for this pooled population are presented in Table 16 and FIG. 13 and the UWDRS Part III total score results are in Table 17 and FIG. 14. The UWDRS Part III Functional Subscale (comprised of the items arising from a chair, gait, handwriting and speech) results for this pooled population are presented in Table 18 and FIG. 15.

[2] = tested on: copper
Source text: (§1) These participants had all intake (food and drink) and output (urine and feces) collected from Day-4 through Day-1 (baseline), from Day 1 through Day 8, and Day 25 through Day 39.

[3] = in vivo
Source text: as §1

Substance: Bis-choline tetrathiomolybdate [BC-TTM]
- UWDRS Part III Functional Subscale (Range 0-10) Mean ([1]; Baseline, observed value): 1.590
- UWDRS Part II, Part III and Part III Functional Subscale scores over up to 5 years ([1]; Pooled Studies 301 and 201): continuing improvement
- UWDRS Part II Score (Range 0-40), change from baseline, Mean (SD) ([1]; Pooled Studies 301 and 201, BC-TTM exposure 4 weeks): −0.3 (2.28)
- UWDRS Part II Score (Range 0-40), change from baseline, Mean (SD) ([1]; Pooled Studies 301 and 201, BC-TTM exposure 12 weeks): −0.4 (2.76)
- UWDRS Part II Score (Range 0-40), change from baseline, Mean (SD) ([1]; Pooled Studies 301 and 201, BC-TTM exposure 24 weeks): −0.4 (3.42)
- UWDRS Part II Score (Range 0-40), change from baseline, Mean (SD) ([1]; Pooled Studies 301 and 201, BC-TTM exposure 36 weeks): −0.9 (4.11)
- UWDRS Part II Score (Range 0-40), change from baseline, Mean (SD) ([1]; Pooled Studies 301 and 201, BC-TTM exposure 48 weeks): −1.2 (4.24)
- UWDRS Part II Score (Range 0-40), change from baseline, Mean (SD) ([1]; Pooled Studies 301 and 201, BC-TTM exposure 60 weeks): −1.4 (4.35)
- UWDRS Part II Score (Range 0-40), change from baseline, Mean (SD) ([1]; Pooled Studies 301 and 201, BC-TTM exposure 72 weeks): −1.9 (4.74)
- UWDRS Part II Score (Range 0-40), change from baseline, Mean (SD) ([1]; Pooled Studies 301 and 201, BC-TTM exposure 96 weeks): −2.5 (6.11)
- UWDRS Part II Score (Range 0-40), change from baseline, Mean (SD) ([1]; Pooled Studies 301 and 201, BC-TTM exposure 120 weeks): −3.1 (6.82)
- UWDRS Part II Score (Range 0-40), change from baseline, Mean (SD) ([1]; Pooled Studies 301 and 201, BC-TTM exposure 144 weeks): −3.3 (6.61)
- UWDRS Part II Score (Range 0-40), change from baseline, Mean (SD) ([1]; Pooled Studies 301 and 201, BC-TTM exposure 168 weeks): −6.2 (10.17)
- UWDRS Part II Score (Range 0-40), change from baseline, Mean (SD) ([1]; Pooled Studies 301 and 201, BC-TTM exposure 192 weeks): −5.9 (9.88)
- UWDRS Part II Score (Range 0-40), change from baseline, Mean (SD) ([1]; Pooled Studies 301 and 201, BC-TTM exposure 216 weeks): −7.1 (10.90)
- UWDRS Part II Score (Range 0-40), change from baseline, Mean (SD) ([1]; Pooled Studies 301 and 201, BC-TTM exposure 240 weeks): −6.6 (10.09)
- UWDRS Part II Score (Range 0-40), change from baseline, Mean (SD) ([1]; Pooled Studies 301 and 201, BC-TTM exposure 264 weeks): −6.2 (9.02)
- Increase from Baseline in Directly Measured NCC, Mean (SD) ([2]; Study 204, Day 1, 2 Hours Post-Dose): 0.5004 (0.7105) μmol/L
- Increase from Baseline in Directly Measured NCC, Mean (SD) ([2]; Study 204, Day 1, 4 Hours Post-Dose): 1.96 (1.804) μmol/L
- Increase from Baseline in Directly Measured NCC, Mean (SD) ([2]; Study 204, Day 1, 5 Hours Post-Dose): 2.719 (2.534) μmol/L
- Increase from Baseline in Directly Measured NCC, Mean (SD) ([2]; Study 204, Day 1, 6 Hours Post-Dose): 2.324 (2.086) μmol/L
- Increase from Baseline in Directly Measured NCC, Mean (SD) ([2]; Study 204, Day 1, 8 Hours Post-Dose): 2.402 (2.183) μmol/L
- Increase from Baseline in Directly Measured NCC, Mean (SD) ([2]; Study 204, Day 1, 12 Hours Post-Dose): 1.725 (1.575) μmol/L
- Increase from Baseline in Directly Measured NCC, Mean (SD) ([2]; Study 204, Day 1, 24 Hours Post-Dose): 1.063 (1.074) μmol/L
- Increase from Baseline in Directly Measured NCC, Mean (SD) ([2]; Study 204, Day 4, Pre-Dose): 2.677 (1.297) μmol/L
- Increase from Baseline in Directly Measured NCC, Mean (SD) ([2]; Study 204, Day 5, Pre-Dose): 3.144 (1.37) μmol/L
- Increase from Baseline in Directly Measured NCC, Mean (SD) ([2]; Study 204, Day 6, Pre-Dose): 3.574 (1.57) μmol/L
- Increase from Baseline in Directly Measured NCC, Mean (SD) ([2]; Study 204, Day 7, Pre-Dose): 3.7 (1.709) μmol/L
- Increase from Baseline in Directly Measured NCC, Mean (SD) ([2]; Study 204, Day 25, 2 Hours Post-Dose): 2.551 (1.063) μmol/L
- Increase from Baseline in Directly Measured NCC, Mean (SD) ([2]; Study 204, Day 25, 4 Hours Post-Dose): 3.443 (2.008) μmol/L
- Increase from Baseline in Directly Measured NCC, Mean (SD) ([2]; Study 204, Day 25, 5 Hours Post-Dose): 3.38 (2.478) μmol/L
- Increase from Baseline in Directly Measured NCC, Mean (SD) ([2]; Study 204, Day 25, 6 Hours Post-Dose): 4.44 (2.949) μmol/L
- Increase from Baseline in Directly Measured NCC, Mean (SD) ([2]; Study 204, Day 25, 8 Hours Post-Dose): 5.101 (2.491) μmol/L
- Increase from Baseline in Directly Measured NCC, Mean (SD) ([2]; Study 204, Day 25, 12 Hours Post-Dose): 4.917 (2.463) μmol/L
- Increase from Baseline in Directly Measured NCC, Mean (SD) ([2]; Study 204, Day 25, 24 Hours Post-Dose): 3.438 (1.754) μmol/L
- Increase from Baseline in Directly Measured NCC, Mean (SD) ([2]; Study 204, Day 25, −0.5 Hours): 2.121 (0.611) μmol/L
- Increase from Baseline in Directly Measured NCC, Mean (SD) ([2]; Study 204, Day 27, Pre-Dose): 2.767 (1.755) μmol/L
- Increase from Baseline in Directly Measured NCC, Mean (SD) ([2]; Study 204, Day 28, Pre-Dose): 2.327 (1.376) μmol/L
- Increase from Baseline in Directly Measured NCC, Mean (SD) ([2]; Study 204, Day 29, 2 Hours Post-Dose): 2.814 (0.884) μmol/L
- Increase from Baseline in Directly Measured NCC, Mean (SD) ([2]; Study 204, Day 29, 4 Hours Post-Dose): 3.38 (1.494) μmol/L
- Increase from Baseline in Directly Measured NCC, Mean (SD) ([2]; Study 204, Day 29, 5 Hours Post-Dose): 4.078 (1.939) μmol/L
- Increase from Baseline in Directly Measured NCC, Mean (SD) ([2]; Study 204, Day 29, 6 Hours Post-Dose): 4.686 (2.237) μmol/L
- Increase from Baseline in Directly Measured NCC, Mean (SD) ([2]; Study 204, Day 29, 8 Hours Post-Dose): 5.305 (2.311) μmol/L
- Increase from Baseline in Directly Measured NCC, Mean (SD) ([2]; Study 204, Day 29, 12 Hours Post-Dose): 4.749 (2.205) μmol/L
- Increase from Baseline in Directly Measured NCC, Mean (SD) ([2]; Study 204, Day 29, 24 Hours Post-Dose): 3.543 (1.397) μmol/L
- Increase from Baseline in Directly Measured NCC, Mean (SD) ([2]; Study 204, Day 29, −0.5 Hours): 2.662 (1.209) μmol/L
- Increase from Baseline in Directly Measured NCC, Mean (SD) ([2]; Study 204, Day 31, Pre-Dose): 4.121 (2.779) μmol/L
- Increase from Baseline in Directly Measured NCC, Mean (SD) ([2]; Study 204, Day 32, Pre-Dose (N=1)): 8.131 (NA) μmol/L
- Increase from Baseline in Directly Measured NCC, Mean (SD) ([2]; Study 204, Day 33, Pre-Dose): 4.231 (4.114) μmol/L
- Increase from Baseline in Directly Measured NCC, Mean (SD) ([2]; Study 204, Day 34, Pre-Dose): 4.103 (3.872) μmol/L
- Increase from Baseline in Directly Measured NCC, Mean (SD) ([2]; Study 204, Day 35, Pre-Dose): 4.49 (4.526) μmol/L
- Increase from Baseline in Directly Measured NCC, Mean (SD) ([2]; Study 204, Day 36, Pre-Dose): 3.465 (3.016) μmol/L
- Increase from Baseline in Directly Measured NCC, Mean (SD) ([2]; Study 204, Day 37, Pre-Dose): 4.168 (4.069) μmol/L
- Increase from Baseline in Directly Measured NCC, Mean (SD) ([2]; Study 204, Day 38, Pre-Dose (N=1)): 7.643 (NA) μmol/L
- Increase from Baseline in Directly Measured NCC, Mean (SD) ([2]; Study 204, Day 39, 2 Hours Post-Dose): 3.816 (3.943) μmol/L
- Increase from Baseline in Directly Measured NCC, Mean (SD) ([2]; Study 204, Day 39, 4 Hours Post-Dose): 5.578 (5.922) μmol/L
- Increase from Baseline in Directly Measured NCC, Mean (SD) ([2]; Study 204, Day 39, 5 Hours Post-Dose): 6.26 (6.245) μmol/L
- Increase from Baseline in Directly Measured NCC, Mean (SD) ([2]; Study 204, Day 39, 6 Hours Post-Dose): 6.659 (5.704) μmol/L
- Increase from Baseline in Directly Measured NCC, Mean (SD) ([2]; Study 204, Day 39, 8 Hours Post-Dose): 7.32 (6.096) μmol/L
- Increase from Baseline in Directly Measured NCC, Mean (SD) ([2]; Study 204, Day 39, 12 Hours Post-Dose): 6.554 (4.695) μmol/L
- Increase from Baseline in Directly Measured NCC, Mean (SD) ([2]; Study 204, Day 39, 24 Hours Post-Dose): 4.545 (3.677) μmol/L
- Increase from Baseline in Directly Measured NCC, Mean (SD) ([2]; Study 204, Day 39, −0.5 Hours): 3.412 (3.688) μmol/L
- participants in whom dose escalation was not carried out due to elevation of liver enzymes [3]: 2 participants
